One data set has as its target CYP1A2 (Homo sapiens (Human), UniProt P05177). Particulars: microsomes. The protocol: (§1) CYP isoforms inhibitory activities of test compounds were measured in human liver microsome.
(§2) Preparation details of these substrates are given in below table. The substrate stock solution was stored in a −20° C. freezer. Prior to use, the substrate stock solution was removed from the freezer and allowed to rise to room temperature. Then the substrate stock solution was mixed on a whirly mixer for 30 seconds.
(§3) HLMs were stored in a −80° C. freezer. Prior to use, the pooled HLM was removed from the freezer and allowed to thaw in a 37° C. water bath and then stored on wet ice.
(§4) The positive control inhibitors and their concentrations used by each isozyme are summarized below.
(§5) All samples were incubated in a 37° C. water bath, with three parallels for each concentration of the test compound and two parallels for each concentration of the positive control inhibitor. 100 μL of microsome working solution was taken and added 2 μL of the test product or positive inhibitor working solution. 2 μL solvents was added to the solvent control, and put in a water bath to pre-incubate for 10 min. After pre-incubation, 98 μL of NADPH regeneration solution was added to all samples to start the reaction. Then the mixture was put back in the water bath and incubated for a certain period of time.
(§6) The reaction was quenched by 200 μL stop solution. […]
(§7) IC50 values were determined using 3- or 4-parameter logistic equation.

The next data set addresses CYP2C9 (Homo sapiens (Human), UniProt P11712). The data set can be described thus: CYP isoforms inhibitory assay in human liver microsome, CYP2C9. The data set is classed as in vitro ADME. Conditions: substrate diclofenac. The protocol:
as §1, §2, §3, §4, §5, §6, §7
For orientation: Liver microsomes are vesicles of endoplasmic reticulum, rich in cytochrome P450 enzymes.

A further data set deals with CYP2C19 (Homo sapiens (Human), UniProt P33261). As to the kind of experiment: CYP isoforms inhibitory assay in human liver microsome, CYP2C19. Conditions: substrate s-mephenytoin. The data set is classed as in vitro ADME. The protocol:
as §1, §2, §3, §4, §5, §6, §7

Data set [1] deals with cryopreserved hepatocytes.
Procedure: 1) 10 mM test compounds were provided.
(§8) 2) 30 mM positive control stock solutions: Dissolved accurate amount of positive control compounds in dimethyl sulfoxide (DMSO).
(§9) 3) 1000× Stock Solution: Diluted 10 mM test compounds and 30 mM positive control compounds to 1 mM and 3 mM with DMSO in 96-well plates.
(§10) 4) 100× Dosing Solution: Diluted 1 mM test compounds and 3 mM positive control compounds to 100 μM and 300 μM dosing solutions with ACN.
(§11) 5) Preparation of 0.5×10^6/mL cells suspension: cryopreserved cells were thawed, isolated and suspended in Incubation Medium, then diluted with pre-warmed Incubation Medium to 0.5×10^6 cells/mL.
(§12) 6) Add 198 μL of pre-warmed cell suspensions in 96-well plates.
(§13) 7) Preparation of Quenching Plate: Transfer 125 μL of stop solution in a set of pre-labeled 96-well plates.
(§14) 8) Spike 2 μL dosing solution to each well of 96-well plates in duplicate.
(§15) 9) For TO Samples, mix to achieve a homogenous suspension for about 1 min, then immediately transfer 25 μL of each sample into well containing 125 μL of ice-cold stop solution followed by mixing.
(§16) 10) Incubate all plates at 37° C. in a 95% humidified incubator at 5% CO2 to start the reactions with constant shaking.
(§17) 11) At 15, 30, 60 and 90 min, mix samples and then transfer 25 μL of each sample at each time point to well containing 125 μL of ice-cold stop solution followed by mixing.
(§18) 12) Medium Control (MC) sample plates (labeled as TO-MC and T90-MC) are prepared in the same way as cell incubation except that medium was used instead of cell suspension.
(§19) 13) At each corresponding time point, stop the reactions by removing the plates from incubator and mixing with 125 μL of ice-cold stop solution.
(§20) 14) Vortex the plates immediately on a plate shaker at 600 rpm for 10 minutes. Then, centrifuge all sample plates at 3220×g for 20 min at 4° C.
(§21) 15) After centrifugation, 80 μL/well of supernatant in the sample plates are transferred to another set of pre-labeled 96-well plates which containing 240 μL of ultra pure water according to the plate map.
(§22) 16) Analytical plates are sealed and store at 4° C. until LC-MS/MS analysis.
(§23) The remaining percents of test articles after incubation were calculated by the follow equations:
(§24) Use the following equation of first order kinetics to calculate T1/2 and CLint:
Data set [2] deals with cryopreserved hepatocytes. This is another data set of the same source.
Procedure: 1) 10 mM test compounds were provided.
as §8, §9, §10, §11, §12, §13, §14, §15, §16, §17, §18, §19, §20, §21, §22, §23, §24
For data set [3] the following is noted: mouse, microsomes.
A short description of a further data set: in vitro. Particulars: human, microsomes.
A short description of data set [4]: Hepatic metabolic stability (HMS) assay, rat hepatocytes. Particulars: rat, cryopreserved hepatocytes.
Procedure: 1) 10 mM test compounds were provided.
as §8, §9, §10, §11, §12, §13, §14, §15, §16, §17, §18, §19, §20, §21, §22, §23, §24
Data set [5] in a line: Hepatic metabolic stability (HMS) assay, human hepatocytes. Particulars: human, cryopreserved hepatocytes.
Procedure: 1) 10 mM test compounds were provided.
as §8, §9, §10, §11, §12, §13, §14, §15, §16, §17, §18, §19, §20, §21, §22, §23, §24
The nature of data set [6]: Hepatic metabolic stability (HMS) assay, cynomolgus monkey hepatocytes. Conditions: cynomolgus monkey, cryopreserved hepatocytes.
Procedure: 1) 10 mM test compounds were provided.
as §8, §9, §10, §11, §12, §13, §14, §15, §16, §17, §18, §19, §20, §21, §22, §23, §24

Chain of CYP1A2 (P05177 whole entry, canonical isoform): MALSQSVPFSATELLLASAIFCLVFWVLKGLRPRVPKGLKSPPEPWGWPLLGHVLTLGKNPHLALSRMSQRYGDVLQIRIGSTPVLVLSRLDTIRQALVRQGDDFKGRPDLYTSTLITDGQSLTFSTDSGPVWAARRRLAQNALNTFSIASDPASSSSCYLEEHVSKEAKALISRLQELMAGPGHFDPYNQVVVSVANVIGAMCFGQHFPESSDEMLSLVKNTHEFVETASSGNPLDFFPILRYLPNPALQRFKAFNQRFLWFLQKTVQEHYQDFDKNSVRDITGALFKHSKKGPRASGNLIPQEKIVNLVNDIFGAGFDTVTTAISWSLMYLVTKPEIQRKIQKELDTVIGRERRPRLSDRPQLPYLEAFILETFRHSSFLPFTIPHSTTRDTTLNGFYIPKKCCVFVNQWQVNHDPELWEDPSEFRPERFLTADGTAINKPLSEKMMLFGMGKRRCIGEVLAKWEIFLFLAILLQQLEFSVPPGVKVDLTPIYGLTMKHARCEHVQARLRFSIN
Chain of CYP2C9 (P11712 whole entry, canonical isoform): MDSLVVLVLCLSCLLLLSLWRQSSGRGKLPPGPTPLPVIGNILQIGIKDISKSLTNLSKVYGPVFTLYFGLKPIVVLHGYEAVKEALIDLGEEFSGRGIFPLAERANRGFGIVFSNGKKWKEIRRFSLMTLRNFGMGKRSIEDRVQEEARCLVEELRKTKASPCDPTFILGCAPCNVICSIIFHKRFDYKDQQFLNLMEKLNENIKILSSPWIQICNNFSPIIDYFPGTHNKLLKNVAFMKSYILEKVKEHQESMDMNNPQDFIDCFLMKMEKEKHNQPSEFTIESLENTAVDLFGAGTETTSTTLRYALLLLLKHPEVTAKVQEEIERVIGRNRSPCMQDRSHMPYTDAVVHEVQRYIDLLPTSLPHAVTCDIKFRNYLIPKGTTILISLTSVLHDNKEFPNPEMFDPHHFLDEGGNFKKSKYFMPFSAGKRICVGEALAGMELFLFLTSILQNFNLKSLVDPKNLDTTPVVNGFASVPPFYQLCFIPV
Chain of CYP2C19 (P33261 whole entry, canonical isoform): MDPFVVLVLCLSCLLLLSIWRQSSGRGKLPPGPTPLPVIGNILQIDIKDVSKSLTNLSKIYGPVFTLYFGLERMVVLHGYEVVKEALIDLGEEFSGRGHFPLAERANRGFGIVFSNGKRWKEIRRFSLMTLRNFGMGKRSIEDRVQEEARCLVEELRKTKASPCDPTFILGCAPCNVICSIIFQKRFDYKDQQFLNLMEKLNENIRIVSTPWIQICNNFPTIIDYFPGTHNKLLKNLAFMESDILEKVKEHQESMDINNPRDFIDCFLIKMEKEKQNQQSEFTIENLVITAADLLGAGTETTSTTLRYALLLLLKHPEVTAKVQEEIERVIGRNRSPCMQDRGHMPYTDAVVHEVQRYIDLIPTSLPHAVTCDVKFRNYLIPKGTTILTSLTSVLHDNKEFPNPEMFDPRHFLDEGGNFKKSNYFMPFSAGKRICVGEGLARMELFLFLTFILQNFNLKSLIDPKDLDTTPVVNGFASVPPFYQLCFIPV

The term IC50 denotes the concentration needed to halve the response being measured. On to `CN(C(=O)c1ccc2nc(N)c3cncn3c2c1)C1COc2cc(C(F)(F)F)ccc21` (centres unmarked) [Compound 17], for which the IC50 against CYP1A2 is > 30 µM; on CYP2C9, > 30 µM; on CYP2C19 it was 15.1 µM. Moreover, the “CLint (liver) R” value in [1] was 49.8 mL/min/kg. Further, the “CLint (hep) R” value in data set [1] (rat) amounted to 10.6 μL/min/10^6. Moreover, the “T1/2 (hepatocytes) R” value in [1] (rat) was found to be 2.172 h. In addition, the “CLint (liver) D” value in data set [2] was 46.9 mL/min/kg. For the same compound, the “CLint (hep) D” value in data set [2] (dog) was 6.8 μL/min/10^6. Besides, in data set [2] (dog), the “T1/2 (hepatocytes) D” value was 3.39 h. Besides, the “T1/2 of LMS, M” value in data set [3] stood at 1.61 h.
What is called half-life is how long it takes for the measured level to halve. Regarding `CN(C(=O)c1ccc2nc(N)c3cncn3c2c1)[C@@H]1COc2cc(C(F)(F)F)ccc21` [Compound 12], the half-life at 1 μM is > 2.42 h in the data set “in vitro”, 2.26 h in data set [4], 1.84 h in [5] and 1.11 h in data set [6].

These data come from US20240262835A1, “PRMT5 INHIBITING COMPOUNDS AND USES THEREOF” (ANTENGENE DISCOVERY LIMITED, priority 2023, published 2024).
